Assay results reported in ChEMBL document CHEMBL1781921, “Concise synthesis and CDK/GSK inhibitory activity of the missing 9-azapaullones” (Bioorg Med Chem Lett, 2010).

How the values were obtained:
CDK9/cyclin T1 = CDK9/cyclin T1 (Homo sapiens, UniProt P50750); test: Inhibition of human recombinant CDK9/cyclin T expressed in insect cells assessed as incorporation of [gamma-33P]-ATP in to pRB fragment (773 to 928) substrate after 30 mins by scintillation counting
[1] = target: Cyclin-dependent kinase 2/cyclin A (Homo sapiens, UniProt P24941); test: Inhibition of human recombinant CDK2/cyclin A assessed as incorporation of [gamma-33P]-ATP into histone H1 substrate after 30 mins by scintillation counting; type: protein-complex assay
[2] = target: T1, Glycogen synthase kinase 3 (Plasmodium falciparum (isolate 3D7), UniProt O77344); test: Inhibition of Plasmodium falciparum GSK3
T1 sequence (O77344 whole entry): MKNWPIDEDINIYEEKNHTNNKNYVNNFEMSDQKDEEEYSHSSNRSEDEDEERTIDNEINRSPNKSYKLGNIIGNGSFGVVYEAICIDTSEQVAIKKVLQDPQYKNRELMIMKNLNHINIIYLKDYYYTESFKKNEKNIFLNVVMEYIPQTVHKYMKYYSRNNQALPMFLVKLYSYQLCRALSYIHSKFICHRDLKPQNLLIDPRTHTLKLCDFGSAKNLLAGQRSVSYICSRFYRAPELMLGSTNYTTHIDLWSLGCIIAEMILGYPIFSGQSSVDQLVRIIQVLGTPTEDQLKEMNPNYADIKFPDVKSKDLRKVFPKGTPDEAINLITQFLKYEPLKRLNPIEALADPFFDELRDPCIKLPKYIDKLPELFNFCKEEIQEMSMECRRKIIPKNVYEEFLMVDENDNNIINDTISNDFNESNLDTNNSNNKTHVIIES

[3] = target: Cyclin-dependent kinase 5/CDK5 activator 1 (Homo sapiens, UniProt Q00535); test: Inhibition of human recombinant CDK5/p25 assessed as incorporation of [gamma-33P]-ATP into histone H1 substrate after 30 mins by scintillation counting; type: protein-complex assay
Sequence of Cyclin-dependent kinase 5/CDK5 activator 1 (Q00535 whole entry, canonical isoform): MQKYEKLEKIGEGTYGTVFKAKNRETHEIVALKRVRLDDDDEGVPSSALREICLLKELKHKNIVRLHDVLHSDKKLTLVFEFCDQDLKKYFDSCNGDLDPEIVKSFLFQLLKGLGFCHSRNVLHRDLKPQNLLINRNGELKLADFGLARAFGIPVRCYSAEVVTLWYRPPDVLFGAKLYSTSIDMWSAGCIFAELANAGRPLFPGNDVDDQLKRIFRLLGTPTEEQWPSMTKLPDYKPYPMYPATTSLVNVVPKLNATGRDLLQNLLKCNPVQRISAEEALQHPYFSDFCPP
Sequence of Cyclin-dependent kinase 5/CDK5 activator 1 (Q15078 whole entry, further chain, canonical isoform): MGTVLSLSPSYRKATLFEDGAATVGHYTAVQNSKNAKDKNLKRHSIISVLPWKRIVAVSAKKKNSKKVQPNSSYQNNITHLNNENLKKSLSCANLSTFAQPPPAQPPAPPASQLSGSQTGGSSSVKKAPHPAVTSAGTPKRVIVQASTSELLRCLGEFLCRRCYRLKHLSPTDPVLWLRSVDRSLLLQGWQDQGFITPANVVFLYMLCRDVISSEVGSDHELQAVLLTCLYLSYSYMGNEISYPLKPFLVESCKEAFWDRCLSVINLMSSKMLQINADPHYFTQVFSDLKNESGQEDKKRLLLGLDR

[4] = target: T2, Casein kinase I isoform alpha (Sus scrofa, UniProt O19175); test: Inhibition of porcine brain CK1 assessed as incorporation of [gamma-33P]-ATP into RRKHAAIGpSAYSITA substrate after 30 mins by scintillation counting
T2 sequence (O19175 whole entry): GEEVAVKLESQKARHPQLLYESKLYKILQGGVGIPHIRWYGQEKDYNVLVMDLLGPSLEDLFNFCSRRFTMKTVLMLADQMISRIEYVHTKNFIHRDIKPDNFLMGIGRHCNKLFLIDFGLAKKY

[5] = target: Dual specificity protein kinase CLK1 (Homo sapiens, UniProt P49759); test: Inhibition of CLK1
Sequence of Dual specificity protein kinase CLK1 (P49759 whole entry): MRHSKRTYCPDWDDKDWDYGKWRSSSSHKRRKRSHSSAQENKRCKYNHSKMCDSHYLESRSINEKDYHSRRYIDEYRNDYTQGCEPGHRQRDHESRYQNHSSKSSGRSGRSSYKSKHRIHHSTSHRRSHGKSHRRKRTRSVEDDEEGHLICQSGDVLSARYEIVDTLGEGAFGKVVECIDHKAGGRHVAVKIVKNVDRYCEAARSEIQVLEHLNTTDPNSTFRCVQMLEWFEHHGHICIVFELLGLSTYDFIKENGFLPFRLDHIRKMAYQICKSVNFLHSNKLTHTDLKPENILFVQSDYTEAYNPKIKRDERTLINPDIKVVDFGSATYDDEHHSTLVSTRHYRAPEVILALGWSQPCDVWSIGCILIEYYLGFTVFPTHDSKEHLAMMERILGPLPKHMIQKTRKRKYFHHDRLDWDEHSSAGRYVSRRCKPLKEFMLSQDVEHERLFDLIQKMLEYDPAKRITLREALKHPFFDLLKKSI

[6] = Inhibition of M-phase starfish oocytes CDK1/cyclin B assessed as incorporation of [gamma-33P]-ATP into histone H1 substrate after 30 mins by scintillation counting; type: cell-based, Asteroidea; conditions: oocyte
[7] = target: Dual specificity tyrosine-phosphorylation-regulated kinase 1A (Rattus norvegicus, UniProt Q63470); test: Inhibition of rat recombinant GST-fused DYRK1A expressed in Escherichia coli assessed as assessed as incorporation of [gamma-33P]-ATP into myelin basic protein after 30 mins by scintillation counting

Sequence of CDK9/cyclin T1 (O60563 whole entry, the tested form may be a part): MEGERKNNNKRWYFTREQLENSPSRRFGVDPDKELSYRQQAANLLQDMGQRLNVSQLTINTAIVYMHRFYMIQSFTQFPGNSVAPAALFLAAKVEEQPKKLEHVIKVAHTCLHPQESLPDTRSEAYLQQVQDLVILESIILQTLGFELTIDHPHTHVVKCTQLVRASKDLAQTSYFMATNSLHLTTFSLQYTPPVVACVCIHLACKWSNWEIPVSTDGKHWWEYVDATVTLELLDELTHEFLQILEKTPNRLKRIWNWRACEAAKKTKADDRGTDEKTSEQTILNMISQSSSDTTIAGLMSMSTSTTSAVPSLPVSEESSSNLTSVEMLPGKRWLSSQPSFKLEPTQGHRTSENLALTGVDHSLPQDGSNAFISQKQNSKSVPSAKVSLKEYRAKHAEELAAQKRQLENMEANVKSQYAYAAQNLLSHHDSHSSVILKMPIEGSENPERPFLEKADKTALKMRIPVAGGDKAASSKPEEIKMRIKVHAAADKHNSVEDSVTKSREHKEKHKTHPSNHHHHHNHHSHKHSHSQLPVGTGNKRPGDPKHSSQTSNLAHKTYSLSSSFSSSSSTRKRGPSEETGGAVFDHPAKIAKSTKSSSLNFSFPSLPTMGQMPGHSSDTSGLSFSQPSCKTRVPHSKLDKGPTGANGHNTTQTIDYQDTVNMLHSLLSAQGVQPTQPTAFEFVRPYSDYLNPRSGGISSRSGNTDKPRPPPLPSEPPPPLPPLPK
Sequence of CDK9/cyclin T1 (P50750 whole entry, the tested form may be a part): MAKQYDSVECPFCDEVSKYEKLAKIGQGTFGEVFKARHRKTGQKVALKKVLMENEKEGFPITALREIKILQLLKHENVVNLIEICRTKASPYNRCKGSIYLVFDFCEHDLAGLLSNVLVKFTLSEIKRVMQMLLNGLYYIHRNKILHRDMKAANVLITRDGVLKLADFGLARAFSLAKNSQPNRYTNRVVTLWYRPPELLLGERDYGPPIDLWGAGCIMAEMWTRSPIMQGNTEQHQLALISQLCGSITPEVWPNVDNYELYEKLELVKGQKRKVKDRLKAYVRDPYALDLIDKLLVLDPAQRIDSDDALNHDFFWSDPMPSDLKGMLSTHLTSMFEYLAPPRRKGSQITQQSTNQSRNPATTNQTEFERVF

Structure (SMILES)	IC50 (CDK9/cyclin T1)	IC50 [1]	IC50 [2]	IC50 [3]	IC50 [4]	IC50 [5]	IC50 [6]	IC50 [7]
O=C1Cc2c([nH]c3ccncc23)-c2ccccc2N1	0.22 µM	2.1 µM	> 10 µM	3 µM	> 10 µM	> 10 µM	–	–
O=C1Cc2c([nH]c3cc[n+](Cc4ccccc4)cc23)-c2ccccc2N1	7.4 µM	> 10 µM	> 10 µM	> 10 µM	> 10 µM	> 10 µM	> 10 µM	> 10 µM
O=C1Cc2c([nH]c3cc[n+]([O-])cc23)-c2ccccc2N1	0.24 µM	6.2 µM	> 10 µM	7.3 µM	> 10 µM	> 10 µM	5.7 µM	> 10 µM
O=C1Cc2c([nH]c3ccc(Br)cc23)-c2ccccc2N1 [KENPAULLONE]	0.064 µM	–	> 10 µM	–	> 10 µM	> 10 µM	0.5 µM	> 10 µM
O=C1Cc2c([nH]c3ccccc23)-c2ccccc2N1 [PAULLONE]	0.81 µM	2.7 µM	–	–	–	–	3 µM	–
